Tested on: GST-tagged Cn
Test: PEPperPRINT peptide microarray binding assay with GST-tagged Cn
Summary of the method: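 Qualitative binding: peptides printed on a PEPperPRINT microarray were incubated overnight at 4 °C with 1 mg/ml GST-tagged Cn, then detected with Alexa-Fluor 647 anti-GST antibody. Log fluorescence was baseline-corrected, averaged over duplicate spots, Z-normalized and averaged across five repeats.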

[1] = max over the spots listed under Location on chip
[2] = mean over the spots listed under Location on chip
[3] = GST-tagged Cn, max over the chip spots listed under Location on chip
[4] = GST-tagged Cn, mean over the chip spots listed under Location on chip
[5] = max over the chip locations listed for the peptide (two spots)
[6] = mean over the chip locations listed for the peptide (two spots)
[7] = GST-tagged Cn, max over the chip locations
[8] = GST-tagged Cn, mean over the chip locations
[9] = GST-tagged Cn, max over the spots named in Location on chip
[10] = GST-tagged Cn, mean over the spots named in Location on chip
[11] = GST-tagged Cn, max over the spots on the chip (two locations)
[12] = GST-tagged Cn, mean over the spots on the chip (two locations)

## PKMAPPAINIDFAPTN [SeqRBMlowT_1805]
[1]
  Chip Fluorescence (max): 2.636
[2]
  Chip Fluorescence (mean): -0.01431

## NMATVPAVTMGEVART [SeqRBM_5293]
[1]
  Chip Fluorescence (max): 2.99
[2]
  Chip Fluorescence (mean): -0.7897

## QYAYNSQMMGITTQLQ [Seqshuffled_9335]
[3]
  Chip Fluorescence (max): 0.8878
[4]
  Chip Fluorescence (mean): -0.5817

## GGPGTPTRQGQPLAPS [SeqRBMlowT_7789]
[5]
  Chip Fluorescence (max): 4.384
[6]
  Chip Fluorescence (mean): 0.9288

## KKMSPPCISIDPAPNN [SeqRBMlowT_7656]
[7]
  Chip Fluorescence (max): 0.1833
[8]
  Chip Fluorescence (mean): -1.098

## LLDDVPDVVVHPPEED [SeqRBMlowT_144]
[5]
  Chip Fluorescence (max): 4.37
[6]
  Chip Fluorescence (mean): 2.238

## LSARYPEIVVSVPEHN [SeqRBM_9361]
[3]
  Chip Fluorescence (max): 0.7337
[4]
  Chip Fluorescence (mean): -0.349

## GDPITVTFSFKQQSIR [Seqshuffled_9986]
[5]
  Chip Fluorescence (max): 4.236
[6]
  Chip Fluorescence (mean): -0.3717

## ADEAPPRITITPYELP [SeqRBMlowT_5415]
[5]
  Chip Fluorescence (max): 3.784
[6]
  Chip Fluorescence (mean): 1.112

## QSQSNPEITVTPPETE [SeqRIPOR2_Austrofundulus_limnaeus]
[5]
  Chip Fluorescence (max): 10.3742
[6]
  Chip Fluorescence (mean): 0.3512

## TFWTNPQFKVSLEEED [SeqRBMlowT_1125]
[1]
  Chip Fluorescence (max): 2.918
[2]
  Chip Fluorescence (mean): 1.097

## KKMAPPCINIDFAPEN [SeqRBMlowT_2474]
[9]
  Chip Fluorescence (max): 1.579
[10]
  Chip Fluorescence (mean): 0.1538

## TFWDNPQYQIKLNDPD [SeqRBM_8698]
[9]
  Chip Fluorescence (max): 1.7877
[10]
  Chip Fluorescence (mean): -0.1207

## RNPGTFPLELEGHKKQ [SeqRBMlowT_8768]
[1]
  Chip Fluorescence (max): 3.224
[2]
  Chip Fluorescence (mean): 1.049

## VHQCTPEVSVSVCFTC [SeqRBM_8420]
[7]
  Chip Fluorescence (max): 0.0911
[8]
  Chip Fluorescence (mean): -0.9088

## LMVSPPEITISPAELH [SeqRBM_5585]
[1]
  Chip Fluorescence (max): 3.353
[2]
  Chip Fluorescence (mean): 0.761

## RTRRISPLFDNPNSKQ [Seqshuffled_9774]
[5]
  Chip Fluorescence (max): 4.819
[6]
  Chip Fluorescence (mean): 0.7359

## DSHTVDPIPINPHSAV [SeqRBM_5538]
[3]
  Chip Fluorescence (max): 0.9715
[4]
  Chip Fluorescence (mean): -0.655

## PSLFPDALGLGQFSLS [SeqCRZ1_Aureobasidium_pullulans]
[11]
  Chip Fluorescence (max): 1.272
[12]
  Chip Fluorescence (mean): 0.42

## RFRTELSFGFTGFGTD [Seqshuffled_9528]
[3]
  Chip Fluorescence (max): 0.42
[4]
  Chip Fluorescence (mean): -0.6398

## TFWTNPQFRLKLIDPD [SeqRBMlowT_9197]
[9]
  Chip Fluorescence (max): 1.422
[10]
  Chip Fluorescence (mean): -0.7542

## LKDESPEVRLNIISSL [SeqRBMlowT_1855]
[1]
  Chip Fluorescence (max): 3.106
[2]
  Chip Fluorescence (mean): 1.095

## STSSLPTFSFSSPVPT [SeqRBMlowT_3904]
[3]
  Chip Fluorescence (max): 0.9816
[4]
  Chip Fluorescence (mean): -1.275

## TFWTNPQFRIHLEEED [SeqRBMlowT_251]
[1]
  Chip Fluorescence (max): 2.844
[2]
  Chip Fluorescence (mean): 1.205

## ADEAVPEITITPAELP [SeqRBMlowT_1267]
[1]
  Chip Fluorescence (max): 2.637
[2]
  Chip Fluorescence (mean): 0.3175

## PPPGTPTRIGQHMAPS [SeqRBM_7926]
[7]
  Chip Fluorescence (max): -0.5504
[8]
  Chip Fluorescence (mean): -1.127

## RQPGQALLTLRGHSAP [SeqRBMlowT_5806]
[9]
  Chip Fluorescence (max): 1.328
[10]
  Chip Fluorescence (mean): -0.3044

## LCVTGRERIAEDWLRP [Seqrandom_9974]
[11]
  Chip Fluorescence (max): 1.2052
[12]
  Chip Fluorescence (mean): 0.7765

## SQMGKSRPWVSPERDN [SeqRBM_2721]
[3]
  Chip Fluorescence (max): 0.7358
[4]
  Chip Fluorescence (mean): -0.1667

## PGLYDNALGMESFTLS [SeqRBMlowT_2805]
[11]
  Chip Fluorescence (max): 1.201
[12]
  Chip Fluorescence (mean): 0.8541

## TFWSNPQYKITLEEPD [SeqRBMlowT_9677]
[1]
  Chip Fluorescence (max): 3.254
[2]
  Chip Fluorescence (mean): 0.9673

## HVSSSVDIVITPTQHR [SeqRBMlowT_8839]
[9]
  Chip Fluorescence (max): 1.415
[10]
  Chip Fluorescence (mean): 0.2946

## TFWSNPQFRITLEEPD [SeqRBMlowT_9100]
[3]
  Chip Fluorescence (max): 0.5324
[4]
  Chip Fluorescence (mean): -0.206

## DTYGTASLARELPSPK [Seqshuffled_9914]
[9]
  Chip Fluorescence (max): 1.867
[10]
  Chip Fluorescence (mean): 0.7201

## RNPGIALLSLRGHKAQ [SeqRBMlowT_8792]
[11]
  Chip Fluorescence (max): 1.2142
[12]
  Chip Fluorescence (mean): 0.3008

## GSMLVPAINIDYAPTN [SeqRBMlowT_5048]
[1]
  Chip Fluorescence (max): 2.642
[2]
  Chip Fluorescence (mean): 1.025

## NNSESPKIAITTTLGN [SeqRBM_1677]
[9]
  Chip Fluorescence (max): 1.504
[10]
  Chip Fluorescence (mean): -0.4285

## VFWANPQFEVTLREDD [SeqRBM_5060]
[9]
  Chip Fluorescence (max): 1.773
[10]
  Chip Fluorescence (mean): 0.03485

## TSPDQPCIDVHQSESE [SeqRBM_4309]
[1]
  Chip Fluorescence (max): 2.7949
[2]
  Chip Fluorescence (mean): 0.9383
